# In US11293927B2, “Screening methods for PARP modulators” (Ribon Therapeutics, Inc., priority 2018, dated 2022):
# What was measured:
# PARP16 = molecular target: T1, PARP16 (Homo sapiens, UniProt Q8N5Y8); test: In vitro TR-FRET probe displacement assay (Probe C), PARP16; format: binding; settings: TR-FRET displacement of Probe C, PARP16 residues 5-279
# T1 construct: made in house; host or cells: E. coli
# T1 sequence (Q8N5Y8 5-279 isoform Q8N5Y8-3): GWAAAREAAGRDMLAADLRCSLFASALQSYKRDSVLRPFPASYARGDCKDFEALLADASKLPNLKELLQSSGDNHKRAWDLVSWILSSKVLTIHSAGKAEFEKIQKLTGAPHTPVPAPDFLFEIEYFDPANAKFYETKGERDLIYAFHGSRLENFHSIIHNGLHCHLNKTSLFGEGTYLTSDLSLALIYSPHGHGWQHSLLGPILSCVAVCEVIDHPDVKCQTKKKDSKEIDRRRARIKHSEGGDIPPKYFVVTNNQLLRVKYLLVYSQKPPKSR
# Protocol: A portion of PARP16 (residues 5 to 279 of NP_060321.3 (SEQ ID NO: 6), GenBank Accession No. NM_017851) was overexpressed in E. coli cells. An N-terminal fusion tag, […] (SEQ ID NO: 9), was used to purify the protein from cell lysates. The fusion tag was left on the protein for use in the probe displacement assay.
# Displacement of a Probe C binding to monoPARP active sites was measured using a time-resolved fluorescence resonance energy transfer (TR-FRET) assay. 20 nL of a dose response curve of each test compound was spotted in black 384-well polystyrene proxiplates (Perkin Elmer) using a Mosquito (TTP Labtech). Reactions were performed in an 8 μL volume by adding 6 μL of the monoPARP and Probe C in assay buffer (20 mM HEPES pH=8, 100 mM NaCl, 0.1% bovine serum albumin, 2 mM DTT and 0.002% Tween20), incubating with test compound at 25° C. for 30 min, then adding 2 μL of ULight-anti 6×His and LANCE Eu-W 1024 labeled streptavidin (Perkin Elmer). Binding reactions were equilibrated at 25° C. for an additional 30 min, then read on an Envision platereader equipped with a LANCE/DELFIA top mirror (Perkin Elmer) using excitation of 320 nm and emission of 615 nm and […] with a 90 μs delay. The ratio of the 665/615 nm emission were calculated for each well to determine the amount of complex of monoPARP and Probe C in each well. […]
# PARP14 = molecular target: T2, PARP14 (Homo sapiens, UniProt Q460N5); test: NanoBRET probe displacement assay (Probe A) in live 293T cells, PARP14; format: cell-based; settings: NanoBRET displacement of Probe A, NanoLuc-tagged PARP14 in live 293T cells
# T2 sequence (Q460N5 1611-1801): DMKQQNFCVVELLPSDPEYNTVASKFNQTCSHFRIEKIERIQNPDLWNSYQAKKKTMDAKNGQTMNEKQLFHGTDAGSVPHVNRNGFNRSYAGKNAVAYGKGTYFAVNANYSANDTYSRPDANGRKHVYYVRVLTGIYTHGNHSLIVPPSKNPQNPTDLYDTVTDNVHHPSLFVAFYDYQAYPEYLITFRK
# Protocol: MonoPARP genes from Table 5 were cloned into the pcDNA3.1-mammalian expression vector as a NanoLuc fusion with NanoLuc on the N- or C-terminus as indicated. The sequence of the NanoLuc tag is as follows: [table] Displacement of a fluorescently-labeled compound Probe A binding to NanoLuc-tagged monoPARP enzymes was measured in live cells using a bioluminescence resonance energy transfer (NanoBRET) assay. TIPARP, PARP10, PARP12 or PARP14 fused to a NanoLuc tag were overexpressed in 293T cells (ATCC) using the plasmids described herein. Plasmid DNA and empty vector DNA were added to phenol red free OptiMEM (Thermo Fisher) as shown in Table 6 in a total volume of 2.456 mL. 157 μL of Fugene HD (Promega) was added to the DNA mixture and allowed to incubate 5 min at 25° C. [table] Next, 2.375 mL of the plasmid-Fugene mixture were added to 20 million 293T cells in DMEM (Thermo Fisher) supplemented with 10% FBS (VWR). The transfection was incubated for 24 h at 37° C. in an incubator containing air supplemented with 5% CO2. The cells were resuspended in phenol red free OptiMEM media. 40 μL of cells were then added to white polystyrene 384-well non-binding surface microplate (Corning). […] Filtered luminescence was measured on an Envision (Perkin Elmer) equipped with a dual 585 nm mirror, 460±40 nm bandpass filter (donor) and 610±50 nm longpass filter (acceptor). […]
structure (smiles),measurement,setting,value
"O=c1[nH]ncc(N2Cc3ccc(OC4CCNCC4)cc3C2)c1C(F)(F)F [Compound A, 5-[5-(Piperidin-4-yloxy)-2,3-dihydro-1H-isoindol-2-yl]-4-(trifluoromethyl)-2,3-dihydropyridazin-3-one]",IC50,PARP16,100 nM
same,IC50,PARP14,30 nM
